From ChEMBL document CHEMBL1201862, “PubChem BioAssay data set” (2004)
Active and inactive are the calls of the source.

How the values were obtained:
[1] = biological target: Ras and Rab interactor 1/Tyrosine-protein kinase ABL1 (Homo sapiens, UniProt P00519+Q13671); format: functional;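 further: biochemical TR-FRET dose-response test measuring inhibition of binding between Rin1 and Abl proteins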
[2] = biological target: Long-chain-fatty-acid--AMP ligase FadD28 (Mycobacterium tuberculosis, UniProt P9WQ59); experiment: Fluorescence polarization aasay to screen for inhibitors that compete for the binding of FadD28 to a bisubstrate Measured in Biochemical System Using Plate Reader - 2147-01_Inhibitor_Dose_CherryPick_Activity.; format: functional, Mycobacterium tuberculosis H37Rv
Chain of Long-chain-fatty-acid--AMP ligase FadD28 (P9WQ59 whole entry): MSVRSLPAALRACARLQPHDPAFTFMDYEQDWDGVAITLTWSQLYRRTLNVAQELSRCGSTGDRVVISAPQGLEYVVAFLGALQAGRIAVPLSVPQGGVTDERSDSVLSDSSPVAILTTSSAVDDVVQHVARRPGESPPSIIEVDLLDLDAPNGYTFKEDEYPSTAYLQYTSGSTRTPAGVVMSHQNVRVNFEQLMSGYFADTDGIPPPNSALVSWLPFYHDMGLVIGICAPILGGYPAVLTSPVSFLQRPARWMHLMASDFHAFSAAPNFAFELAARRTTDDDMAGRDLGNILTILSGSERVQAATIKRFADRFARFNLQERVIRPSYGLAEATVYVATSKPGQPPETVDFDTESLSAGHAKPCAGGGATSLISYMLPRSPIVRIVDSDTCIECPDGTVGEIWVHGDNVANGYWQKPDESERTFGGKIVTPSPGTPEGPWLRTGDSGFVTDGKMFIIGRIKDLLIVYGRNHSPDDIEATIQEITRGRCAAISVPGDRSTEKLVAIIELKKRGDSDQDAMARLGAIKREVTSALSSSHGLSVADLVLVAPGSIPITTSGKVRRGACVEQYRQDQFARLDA

[3] = biological target: Steroidogenic factor 1 (Homo sapiens, UniProt Q13285); experiment: Counterscreen for inverse agonists of the liver receptor homolog-1 (LRH-1; NR5A2): Luminescence-based cell-based high throughput dose response assay to identify inverse agonists of the Steroidogenic Factor 1 Nuclear Receptor (SF1; NR5A1).; format: functional
Chain of Steroidogenic factor 1 (Q13285 whole entry): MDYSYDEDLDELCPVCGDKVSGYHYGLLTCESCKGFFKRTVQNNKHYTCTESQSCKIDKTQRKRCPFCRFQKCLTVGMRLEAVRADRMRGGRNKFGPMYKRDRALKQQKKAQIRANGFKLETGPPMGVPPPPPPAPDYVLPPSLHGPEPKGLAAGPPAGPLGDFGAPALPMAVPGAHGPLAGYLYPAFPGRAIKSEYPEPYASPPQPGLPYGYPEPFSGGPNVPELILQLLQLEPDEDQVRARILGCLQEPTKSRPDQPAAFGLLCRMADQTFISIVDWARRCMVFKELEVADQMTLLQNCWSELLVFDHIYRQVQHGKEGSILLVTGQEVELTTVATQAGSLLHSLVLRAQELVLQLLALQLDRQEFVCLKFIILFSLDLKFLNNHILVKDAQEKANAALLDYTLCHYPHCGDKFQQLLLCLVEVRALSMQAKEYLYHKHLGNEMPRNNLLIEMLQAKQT

[4] = StAR promoter reporter inhibition counter-screen, dose response, counter-screen for LRH-1 inverse agonist project, cell-based, luminescence, luciferase reporter (AID 651969); format: functional
[5] = biological target: Nuclear receptor subfamily 5 group A member 2 (Homo sapiens, UniProt O00482); format: functional, cell-based;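 further: HEK293T cells transfected with LRH-1 and a StAR promoter luciferase reporter; potency for inhibitors that lower LRH-1 driven reporter light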
Chain of Nuclear receptor subfamily 5 group A member 2 (O00482 whole entry): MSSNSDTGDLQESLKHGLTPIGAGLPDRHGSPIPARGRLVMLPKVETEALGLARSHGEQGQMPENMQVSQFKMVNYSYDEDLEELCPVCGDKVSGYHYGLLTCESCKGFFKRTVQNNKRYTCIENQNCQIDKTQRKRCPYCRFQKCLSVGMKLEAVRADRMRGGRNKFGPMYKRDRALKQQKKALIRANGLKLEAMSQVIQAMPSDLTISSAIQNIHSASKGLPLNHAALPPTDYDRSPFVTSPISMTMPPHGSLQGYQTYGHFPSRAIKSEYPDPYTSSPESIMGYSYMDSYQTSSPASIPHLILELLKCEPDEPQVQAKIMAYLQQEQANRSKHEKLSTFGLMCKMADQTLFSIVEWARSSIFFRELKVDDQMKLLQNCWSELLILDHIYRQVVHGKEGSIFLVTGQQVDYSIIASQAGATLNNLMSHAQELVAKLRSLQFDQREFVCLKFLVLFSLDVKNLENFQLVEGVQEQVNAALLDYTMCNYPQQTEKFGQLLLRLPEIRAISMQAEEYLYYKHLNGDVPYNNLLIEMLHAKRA

[6] = biological target: Fructose-bisphosphate aldolase (Mycobacterium tuberculosis, UniProt P9WQA3); experiment: Fluorescence-based biochemical high throughput dose response assay for inhibitors of the fructose-bisphosphate aldolase (FBA) of M. tuberculosis.; format: functional
Chain of Fructose-bisphosphate aldolase (P9WQA3 whole entry): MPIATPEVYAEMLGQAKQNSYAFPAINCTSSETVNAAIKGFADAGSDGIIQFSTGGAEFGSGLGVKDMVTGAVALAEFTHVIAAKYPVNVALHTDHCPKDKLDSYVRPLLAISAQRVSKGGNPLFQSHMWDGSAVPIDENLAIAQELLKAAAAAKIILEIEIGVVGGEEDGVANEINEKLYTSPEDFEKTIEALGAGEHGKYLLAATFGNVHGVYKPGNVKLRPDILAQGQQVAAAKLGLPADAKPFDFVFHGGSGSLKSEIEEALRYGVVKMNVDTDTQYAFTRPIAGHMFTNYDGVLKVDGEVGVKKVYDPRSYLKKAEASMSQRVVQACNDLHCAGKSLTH

[7] = test system: CHO-K1; experiment: (§1) Counterscreen for antagonists of the orexin 1 receptor (OX1R; HCRTR1): Homogeneous time resolved fluorescence (HTRF)-based cell-based dose response assay to identify antagonists of the parental CHO-K1 cell line. [Related pubchem assays (depositor defined):AID434989, AID435008, AID463079, AID485270, AID492963, AID492964, AID492965, AID493232, AID504699, AID504701]; format: functional; details: Cricetulus griseus
[8] = biological target: T1, Orexin receptor type 2 (Homo sapiens, UniProt O43614); experiment: Counterscreen assay for antagonists of the orexin 1 receptor (OX1R; HCRTR1): Homogeneous Time Resolved Fluorescence (HTRF)-based cell-based dose response assay for antagonists of the orexin 2 receptor (OX2R; HCRTR2), run by assay provider.; format: functional
T1 sequence (O43614 whole entry): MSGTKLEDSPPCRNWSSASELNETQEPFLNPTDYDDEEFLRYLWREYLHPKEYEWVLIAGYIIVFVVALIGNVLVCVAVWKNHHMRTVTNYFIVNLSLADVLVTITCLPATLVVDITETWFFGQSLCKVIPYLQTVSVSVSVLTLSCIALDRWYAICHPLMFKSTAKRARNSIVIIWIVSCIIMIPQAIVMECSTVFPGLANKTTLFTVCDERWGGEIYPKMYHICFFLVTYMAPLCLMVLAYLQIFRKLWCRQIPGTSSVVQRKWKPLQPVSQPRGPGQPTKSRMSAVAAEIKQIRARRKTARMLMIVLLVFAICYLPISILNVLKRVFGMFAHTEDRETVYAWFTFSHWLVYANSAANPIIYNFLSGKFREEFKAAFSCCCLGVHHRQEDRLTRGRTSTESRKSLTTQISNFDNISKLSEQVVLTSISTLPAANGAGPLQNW

[9] = as §1, with “Fluorescence-based” for “Homogeneous time resolved fluorescence (HTRF)-based”, “cell-based high throughput” for “cell-based”, “CHO” for “CHO-K1”; format: functional
[10] = biological target: T1, Orexin receptor type 2; experiment: Counterscreen assay for antagonists of the orexin 1 receptor (OX1R; HCRTR1): Fluorescence-based cell-based dose response assay for antagonists of the orexin 2 receptor (OX2R; HCRTR2), run by assay provider.; format: functional
[11] = biological target: T2, Orexin/Hypocretin receptor type 1 (Homo sapiens, UniProt O43613); experiment: Homogeneous Time Resolved Fluorescence (HTRF)-based cell-based high throughput dose response assay for antagonists of the orexin 1 receptor (OX1R; HCRTR1). [Related pubchem assays (depositor defined):AID434989, AID435008, AID463079, AID485270, AID492963, AID492964, AID492965, AID493232, AID504717, AID504718]; format: functional
T2 sequence (O43613 whole entry): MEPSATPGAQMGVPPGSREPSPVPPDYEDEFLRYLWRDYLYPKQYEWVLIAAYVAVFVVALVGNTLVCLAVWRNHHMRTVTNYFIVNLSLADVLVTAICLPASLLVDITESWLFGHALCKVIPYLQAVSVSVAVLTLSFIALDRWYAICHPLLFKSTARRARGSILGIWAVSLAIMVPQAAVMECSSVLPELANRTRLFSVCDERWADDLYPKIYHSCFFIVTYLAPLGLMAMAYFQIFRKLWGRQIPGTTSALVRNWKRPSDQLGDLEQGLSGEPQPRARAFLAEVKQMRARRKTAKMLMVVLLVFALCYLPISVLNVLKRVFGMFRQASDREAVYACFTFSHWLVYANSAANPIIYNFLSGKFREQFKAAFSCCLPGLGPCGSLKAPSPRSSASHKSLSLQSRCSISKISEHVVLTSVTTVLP

[12] = biological target: T2, Orexin/Hypocretin receptor type 1; experiment: Fluorescence-based cell-based high throughput dose response assay for antagonists of the orexin 1 receptor (OX1R; HCRTR1). [Related pubchem assays (depositor defined):AID434989, AID435008, AID463079, AID485270, AID492963, AID492964, AID492965, AID493232, AID504717, AID504718]; format: functional
[13] = biological target: T3, Sentrin-specific protease 8 (Homo sapiens, UniProt Q96LD8); format: functional
T3 sequence (Q96LD8 whole entry): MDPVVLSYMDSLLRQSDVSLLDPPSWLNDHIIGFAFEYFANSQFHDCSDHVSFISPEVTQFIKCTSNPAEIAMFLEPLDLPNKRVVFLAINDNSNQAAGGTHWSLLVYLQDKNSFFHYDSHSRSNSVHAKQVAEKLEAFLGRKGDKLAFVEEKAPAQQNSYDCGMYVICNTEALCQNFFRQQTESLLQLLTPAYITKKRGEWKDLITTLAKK

[14] = biological target: T4, Caspase-3 (Homo sapiens, UniProt P42574); experiment: Dose-response confirmation of uHTS inhibitor hits of Sentrin-Specific Protease 8 in a Caspase-3 Fluorescence assay.; format: functional
T4 sequence (P42574 whole entry): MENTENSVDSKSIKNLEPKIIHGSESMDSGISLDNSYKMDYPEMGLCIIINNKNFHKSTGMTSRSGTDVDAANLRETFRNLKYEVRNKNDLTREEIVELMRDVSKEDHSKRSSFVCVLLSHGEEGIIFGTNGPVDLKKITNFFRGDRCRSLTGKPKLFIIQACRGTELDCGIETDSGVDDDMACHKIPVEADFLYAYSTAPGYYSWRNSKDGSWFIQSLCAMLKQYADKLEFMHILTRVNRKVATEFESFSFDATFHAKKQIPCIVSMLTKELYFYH

[15] = biological target: T3, Sentrin-specific protease 8; format: functional; remark: listed apart in the source
[16] = biological target: T5, Mitochondrial peptide methionine sulfoxide reductase (Bos taurus, UniProt P54149); experiment: Absorbance-based biochemical high throughput dose response assay for activators of Methionine sulfoxide reductase A (MsrA).; format: functional
T5 sequence (P54149 whole entry): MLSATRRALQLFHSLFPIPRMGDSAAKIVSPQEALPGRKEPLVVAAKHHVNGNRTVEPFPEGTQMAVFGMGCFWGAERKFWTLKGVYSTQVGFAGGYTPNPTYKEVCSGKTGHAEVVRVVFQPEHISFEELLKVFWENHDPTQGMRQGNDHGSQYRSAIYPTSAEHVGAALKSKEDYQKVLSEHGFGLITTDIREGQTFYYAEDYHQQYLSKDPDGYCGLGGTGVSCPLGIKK

[17] = biological target: T6, Polyadenylate-binding protein 1 (Homo sapiens, UniProt P11940); experiment: PABP1 MLLE–PAM2 interaction inhibitors, dose response, miRNA deadenylation inhibitor project, biochemical, fluorescence polarization, Cy5-PAM2 peptide, secondary (AID 602260); format: functional; details: read-out: IC50_Mean
T6 sequence (P11940 whole entry): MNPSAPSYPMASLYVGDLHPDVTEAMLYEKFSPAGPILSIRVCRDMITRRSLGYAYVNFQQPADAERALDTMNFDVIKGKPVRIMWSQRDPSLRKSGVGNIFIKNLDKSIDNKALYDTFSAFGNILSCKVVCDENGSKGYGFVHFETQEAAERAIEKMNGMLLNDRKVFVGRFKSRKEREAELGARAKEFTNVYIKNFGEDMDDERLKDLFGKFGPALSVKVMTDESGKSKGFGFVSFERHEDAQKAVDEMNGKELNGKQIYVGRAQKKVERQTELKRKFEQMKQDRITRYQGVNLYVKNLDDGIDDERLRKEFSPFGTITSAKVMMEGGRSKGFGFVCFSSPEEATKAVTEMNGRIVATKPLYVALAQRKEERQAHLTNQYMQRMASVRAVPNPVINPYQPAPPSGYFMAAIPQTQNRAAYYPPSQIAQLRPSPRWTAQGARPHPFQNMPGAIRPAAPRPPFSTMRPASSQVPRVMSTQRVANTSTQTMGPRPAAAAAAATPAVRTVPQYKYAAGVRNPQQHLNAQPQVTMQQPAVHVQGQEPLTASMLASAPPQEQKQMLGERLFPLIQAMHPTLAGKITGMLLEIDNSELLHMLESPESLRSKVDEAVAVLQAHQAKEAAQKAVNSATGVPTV

[18] = biological target: T6, Polyadenylate-binding protein 1; experiment: PABP1 MLLE–PAM2 binding inhibitor potency, dose response, biochemical, fluorescence polarization, FITC-PAM2 peptide (AID 602259); format: functional; details: read-out: IC50_Mean

Chain of Ras and Rab interactor 1/Tyrosine-protein kinase ABL1 (P00519 whole entry): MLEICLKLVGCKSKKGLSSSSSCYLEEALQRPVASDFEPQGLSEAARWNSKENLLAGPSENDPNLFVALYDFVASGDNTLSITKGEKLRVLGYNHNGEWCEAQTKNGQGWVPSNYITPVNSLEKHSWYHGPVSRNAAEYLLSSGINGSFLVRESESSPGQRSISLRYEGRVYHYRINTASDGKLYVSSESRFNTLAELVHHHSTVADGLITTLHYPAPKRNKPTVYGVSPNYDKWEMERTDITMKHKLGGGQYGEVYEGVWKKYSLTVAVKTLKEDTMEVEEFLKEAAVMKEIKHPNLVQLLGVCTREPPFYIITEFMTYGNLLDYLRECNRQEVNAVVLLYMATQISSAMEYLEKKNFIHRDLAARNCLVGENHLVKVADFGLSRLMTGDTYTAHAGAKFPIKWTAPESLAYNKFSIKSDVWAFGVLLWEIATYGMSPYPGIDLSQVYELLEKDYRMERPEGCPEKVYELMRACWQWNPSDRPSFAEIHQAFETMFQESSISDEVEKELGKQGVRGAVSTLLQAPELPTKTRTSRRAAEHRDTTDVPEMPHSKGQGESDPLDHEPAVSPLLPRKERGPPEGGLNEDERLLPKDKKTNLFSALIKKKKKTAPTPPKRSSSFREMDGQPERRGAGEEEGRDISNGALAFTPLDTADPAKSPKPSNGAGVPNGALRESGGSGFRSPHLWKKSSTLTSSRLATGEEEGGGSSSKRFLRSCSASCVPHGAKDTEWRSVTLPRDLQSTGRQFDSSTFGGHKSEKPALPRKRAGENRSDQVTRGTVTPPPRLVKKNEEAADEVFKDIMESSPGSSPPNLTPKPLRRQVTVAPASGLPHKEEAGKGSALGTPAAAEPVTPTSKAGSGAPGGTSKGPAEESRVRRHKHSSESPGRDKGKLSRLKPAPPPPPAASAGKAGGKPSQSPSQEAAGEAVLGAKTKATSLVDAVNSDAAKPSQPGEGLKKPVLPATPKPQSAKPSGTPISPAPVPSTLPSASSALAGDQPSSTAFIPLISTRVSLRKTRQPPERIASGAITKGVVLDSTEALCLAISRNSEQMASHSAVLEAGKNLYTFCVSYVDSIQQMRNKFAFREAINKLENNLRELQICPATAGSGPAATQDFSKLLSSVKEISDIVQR
Chain of Ras and Rab interactor 1/Tyrosine-protein kinase ABL1 (Q13671 whole entry): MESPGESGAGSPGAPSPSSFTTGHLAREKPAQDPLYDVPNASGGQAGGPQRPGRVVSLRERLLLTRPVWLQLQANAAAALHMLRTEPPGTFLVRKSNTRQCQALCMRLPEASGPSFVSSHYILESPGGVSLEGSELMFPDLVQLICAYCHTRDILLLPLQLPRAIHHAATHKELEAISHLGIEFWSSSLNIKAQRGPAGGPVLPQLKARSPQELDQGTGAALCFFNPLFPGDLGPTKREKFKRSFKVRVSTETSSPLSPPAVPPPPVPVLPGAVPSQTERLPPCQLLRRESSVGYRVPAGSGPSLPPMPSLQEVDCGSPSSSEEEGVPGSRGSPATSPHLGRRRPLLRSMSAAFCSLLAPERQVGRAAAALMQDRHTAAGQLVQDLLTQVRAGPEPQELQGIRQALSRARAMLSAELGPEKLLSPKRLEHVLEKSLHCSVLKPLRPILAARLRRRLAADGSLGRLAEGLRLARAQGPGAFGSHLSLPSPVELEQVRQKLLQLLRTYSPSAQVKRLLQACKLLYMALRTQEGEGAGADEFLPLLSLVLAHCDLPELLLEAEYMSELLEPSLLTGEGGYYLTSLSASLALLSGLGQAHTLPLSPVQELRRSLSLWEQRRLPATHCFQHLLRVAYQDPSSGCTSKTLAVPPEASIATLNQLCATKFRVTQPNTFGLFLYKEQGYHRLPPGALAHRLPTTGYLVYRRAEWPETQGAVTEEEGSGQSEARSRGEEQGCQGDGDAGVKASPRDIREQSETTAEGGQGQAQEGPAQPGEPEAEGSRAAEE

SMILES: CN(CCc1ccccc1)C(=O)c1ccc(NC(=O)Cc2ccc(NC(=O)C3CCN(C(=O)C4CCCCC4)CC3)cc2)cc1
- IC50 [1]: 11.2 µM (inactive)

SMILES: COc1ccc(C(=O)NCCc2c[nH]c3ccccc23)cc1S(=O)(=O)N1CCOCC1
- AC50 [2]: 82.7 µM (active)

SMILES: O=C(CN1C(=O)NC2(CCCC2)C1=O)NCCc1ccc(F)cc1
- IC50 [3]: 6.2 µM (active)
- IC50 [4]: 35.9 µM (inactive)
- IC50 [5]: 35.9 µM (inactive)

SMILES: COc1ccc2cc3cc(C(=O)N4CCN(C5CCCCC5)CC4)oc3nc2c1
- IC50 [6]: 0.92 µM (active)

SMILES: Cn1c(N)c(C(=O)N/N=C/c2ccccc2)sc1=S
- IC50 [7]: > 66.2 µM (inactive)
- IC50 [8]: > 50 µM (inactive)
- IC50 [9]: > 49.7 µM (inactive)
- IC50 [10]: > 88.8 µM (inactive)
- IC50 [11]: 1.59 µM (active)
- IC50 [12]: 2.75 µM (active)

SMILES: COc1ccc(/C=N/NC(=O)c2ccc(NC(=O)c3cccc([N+](=O)[O-])c3)cc2)c(OC)c1
- IC50 [3]: 3.07 µM (active)
- IC50 [4]: 35.9 µM (inactive)
- IC50 [5]: 23.1 µM (inactive)

SMILES: O=C(Cc1ccccc1)c1nc2ccccc2s1
- IC50 [13]: 6.06 µM (active)
- IC50 [14]: 25 µM (active)
- IC50 [15]: 26.7 µM (active)

SMILES: O=c1[nH]c(=S)[nH]cc1Oc1ccc(Cl)cc1Cl
- EC50 [16]: > 104 µM (inactive)
- IC50 [17]: > 66 µM (inactive)
- IC50 [18]: > 66 µM (inactive)
